One test addresses WDR5 (Homo sapiens (Human), UniProt P61964). Put plainly: TR-FRET binding assay (displacement of 10mer-Thr-FAM probe from WDR5). The note with it: read-out: Ki for Inhibition of WDR5 by TR-FRET assay.
Test [1] deals with MV4:11 human cancer cell lines. Put plainly: Anti-proliferative activity, CellTiter-Glo viability assay, 7 day protocol. The note with it: MV4:11 cells, 7 day incubation, read-out: GI50 on cellular proliferation of MV4:11 human cancer cell lines. Format: cell-based. Here is the method: Viability assays are performed by dispensing […] into each well of an opaque 384-well plate and adding compounds at the indicated concentrations in a final volume of 32 μL and a final concentration of DMSO of 0.1% for all samples. After a set incubation period, 7 day protocol, the viability of cells in each well is assessed using the CellTiter-Glo assay (Promega), read on a GloMax 96 Microplane Luminometer (Promega). Serial dilutions of each cell type are included in all assays to generate standard curves and determine assay measurements are taken within the dynamic range of the instrument. GI50 values are calculated based on three biological replicates, each with three technical replicates. Data are expressed as mean plus/minus S.E.M.

The mark [2] stands for this setting: TR-FRET, 10mer-Thr-FAM probe, WDR5-His tag 2 nM, pH 7.0.

pKi: −log10 of the molar value. Like-named read-outs stand apart in the source and are kept apart here.

For “3-(1-Ethyl-3-(trifluoromethyl)-1H-pyrazol-4-yl)-5-((2-iminooxazolidin-3-yl)methyl)-N-(1-methyl-6-oxo-1,6-dihydropyridin-3-yl)methyl)benzamide [Example 293]”, on WDR5, the pKi is 9.27. The GI50 in test [1] is 480 nM. As for `COc1cc(OC)cc([C@@H](NC(=O)c2cc(Cn3ccoc3=N)cc(-c3ccc(F)cc3Cl)c2)C2CC2)c1` (stereo in doubt) [Example 249, 2′-Chloro-N-(cyclopropyl(3,5-dimethoxyphenyl)methyl)-4′-fluoro-5-((2-iminooxazol-3(2H)-yl)methyl)-[1,1′-biphenyl]-3-carboxamide], at WDR5 (setting [2]), the pKi was above 10.00. Also, the GI50 in test [1] (Homo sapiens, MV4-11, 168 h) is 370 nM. As for `Cc1nc(F)ccc1-c1cc(Cn2ccn(C)c2=N)cc(C(=O)NCc2ccc(Cl)c(Cl)c2)c1` [Example 1, N-(3,4-Dichlorobenzyl)-3-(6-fluoro-2-methylpyridin-3-yl)-5-((2-imino-3-methyl-2,3-dihydro-1H-imidazol-1-yl)methyl)benzamide], the pKi at WDR5 (setting [2]) was above 10.00. In test [1] (Homo sapiens, MV4-11, 168 h), the GI50 is 300 nM.

Take `Cc1ccnc(C(NC(=O)c2cc(Cn3ccn(C)c3=N)cc(-c3ccc(F)nc3C)c2)C2CC2)c1` (stereo not shown) [Example 3, N-(Cyclopropyl(4-methylpyridin-2-yl)methyl)-3-(6-fluoro-2-methylpyridin-3-yl)-5-((2-imino-3-methyl-2,3-dihydro-1H-imidazol-1-yl)methyl)benzamide]: the pKi on WDR5 (setting [2]) is above 10.00. In addition, in test [1] (Homo sapiens, MV4-11, 168 h), the GI50 stood at 550 nM. On the same counts, the results for `COc1ccnc(CNC(=O)c2cc(Cn3ccn(C)c3=N)cc(-c3ccncc3C)c2)c1` [Example 8, 3-((2-Imino-3-methyl-2,3-dihydro-1H-imidazol-1-yl)methyl)-N-((4-methoxypyridin-2-yl)methyl)-5-(3-methylpyridin-4-yl)benzamide] are 9.57 and 170 nM.

As to `Cc1ccnc(C(NC(=O)c2cc(Cn3ccn(C)c3=N)cc(-c3ccc(F)cc3C)c2)C2CC2)c1` (stereo not shown) [Example 9, N-(Cyclopropyl(4-methylpyridin-2-yl)methyl)-4′-fluoro-5-((2-imino-3-methyl-2,3-dihydro-1H-imidazol-1-yl)methyl)-2′-methyl-[1,1′-biphenyl]-3-carboxamide], at WDR5 (setting [2]), the pKi is 9.82. In test [1] (Homo sapiens, MV4-11, 168 h), the GI50 was 220 nM. As for `COc1ccnc(CNC(=O)c2cc(Cn3ccn(C)c3=N)cc(-c3cc(C)ccc3OC)c2)c1` [Example 10, 5-((2-Imino-3-methyl-2,3-dihydro-1H-imidazol-1-yl)methyl)-2′-m ethoxy-N-((4-methoxypyridin-2-yl)methyl)-5′-methyl-[1,1′-biphenyl]-3-carboxamide], the pKi on WDR5 (setting [2]) was 8.82. The GI50 in test [1] (Homo sapiens, MV4-11, 168 h) turned out to be 2300 nM. As to `Cc1cc([C@@H](NC(=O)c2cc(Cn3ccn(C)c3=N)cc(-c3ccnn3C(C)C)c2)C2CC2)ccc1F` [Example 102, (S)—N-(Cyclopropyl(4-fluoro-3-methylphenyl)methyl)-3-((2-imino-3-methyl-2,3-dihydro-1H-imidazol-1-yl)methyl)-5-(1-isopropyl-1H-pyrazol-5-yl)benzamide], the GI50 in test [1] (Homo sapiens, MV4-11, 168 h) is 2160 nM.

On to `Cc1cc([C@@H](NC(=O)c2cc(Cn3ccn(C)c3=N)cc(-c3ccc(F)cc3C(F)(F)F)c2F)C2CC2)ccc1F` [Example 109], for which the GI50 in test [1] (Homo sapiens, MV4-11, 168 h) is below 100 nM.

For the compound `Cc1cc([C@@H](NC(=O)c2cc(Cn3ccn(C)c3=N)cc(OCC3CC3)c2)C2CC2)ccc1F` [Example 175], the GI50 in test [1] (Homo sapiens, MV4-11, 168 h) turned out to be 320 nM. Still for that read-out and setting: the result for `Cc1cc([C@H](C)NC(=O)c2cc(Cn3ccoc3=N)cc(-c3ccc(F)cc3C)c2)ccc1F` [Example 230, (S)-4′-Fluoro-N-(1-(4-fluoro-3-methylphenyl)ethyl)-5-((2-iminooxazol-3(2H)-yl)methyl)-2′-methyl-[1,1′-biphenyl]-3-carboxamide] reads 640 nM; that for `Cc1cc([C@H](NC(=O)c2cc(Cn3ccoc3=N)cc(-c3ccc(F)cc3C)c2)C(F)(F)F)ccc1F` [Example 231, (S)-4′-Fluoro-5-((2-iminooxazol-3(2H)-yl)methyl)-2′-methyl-N-(2,2,2-trifluoro-1-(4-fluoro-3-methylphenyl)ethyl)-[1,1′-biphenyl]-3-carboxamide], 870 nM; that for `Cc1cc([C@@H](NC(=O)c2cc(Cn3ccoc3=N)cc(-c3ccc(F)cc3C)c2)C2CC2)ccc1F` [Example 232, (S)—N-(Cyclopropyl(4-fluoro-3-methylphenyl)methyl)-4′-fluoro-5-((2-iminooxazol-3(2H)-yl)methyl)-2′-methyl-[1,1′-biphenyl]-3-carboxamide], 210 nM. The same measure, in the same setting: the value for `Cc1cc(F)ccc1-c1cc(Cn2ccoc2=N)cc(C(=O)N[C@@H](C)c2ccc(F)c(C(F)(F)F)c2)c1` [Example 233, (S)-4′-Fluoro-N-(1-(4-fluoro-3-(trifluoromethyl)phenyl)ethyl)-5-((2-iminooxazol-3(2H)-yl)methyl)-2′-methyl-[1,1′-biphenyl]-3-carboxamide] was 1100 nM; that for `Cc1cc([C@H](C)NC(=O)c2cc(Cn3ccoc3=N)cc(-c3ccc(F)cc3C)c2)ccc1Cl` [Example 234, (S)—N-(1-(4-Chloro-3-methylphenyl)ethyl)-4′-fluoro-5-((2-iminooxazol-3(2H)-yl)methyl)-2′-methyl-[1,1′-biphenyl]-3-carboxamide] was 870 nM; that for `Cc1ccnc(C(NC(=O)c2cc(Cn3ccoc3=N)cc(-c3ncc(F)cc3C)c2)C2CC2)c1` (stereo not shown) [Example 239, N-(Cyclopropyl(4-methylpyridin-2-yl)methyl)-3-(5-fluoro-3-methylpyridin-2-yl)-5-((2-iminooxazol-3(2H)-yl)methyl)benzamide] was 5300 nM.

`Cc1cc([C@@H](NC(=O)c2cc(Cn3ccoc3=N)cc(-c3ncc(F)cc3C(F)(F)F)c2)C2CC2)ccc1F` [Example 241, (S)—N-(Cyclopropyl(4-fluoro-3-methylphenyl)methyl)-3-(5-fluoro-3-(trifluoromethyl)pyridin-2-yl)-5-((2-iminooxazol-3(2H)-yl)methyl)benzamide]: the GI50 in test [1] (Homo sapiens, MV4-11, 168 h) was found to be 12000 nM. On the same count and under the same terms, the value for `Cc1cc([C@@H](NC(=O)c2cc(Cn3ccoc3=N)cc(-c3ccc(F)cc3OC(F)F)c2)C2CC2)ccc1F` [Example 242, (S)—N-(Cyclopropyl(4-fluoro-3-methylphenyl)methyl)-2′-(difluoromethoxy)-4′-fluoro-5-((2-iminooxazol-3(2 h)-yl)methyl)-[1,1′-biphenyl]-3-carboxamide] was 120 nM; that for `Cc1cc([C@@H](NC(=O)c2cc(Cn3ccoc3=N)cc(-c3cccnc3C(F)(F)F)c2)C2CC2)ccc1F` [Example 243, (S)—N-(Cyclopropyl(4-fluoro-3-methylphenyl)methyl)-3-((2-iminooxazol-3(2H)-yl)methyl)-5-(2-(trifluoromethyl)pyridin-3-yl)benzamide] was below 100 nM.

For `COc1cc(CNC(=O)c2cc(Cn3ccoc3=N)cc(-c3cccnc3C(F)(F)F)c2)cc(OC)c1` [Example 244, N-(3,5-Dimethoxybenzyl)-3-((2-iminooxazol-3(2H)-yl)methyl)-5-(2-(trifluoromethyl)pyridin-3-yl)benzamide], the GI50 in test [1] (Homo sapiens, MV4-11, 168 h) worked out at 300 nM. For the compound `COc1cc(OC)cc(C(NC(=O)c2cc(Cn3ccoc3=N)cc(-c3cccnc3C(F)(F)F)c2)C2CC2)c1` (stereo not shown) [Example 245, N-(Cyclopropyl(3,5-dimethoxyphenyl)methyl)-3-((2-iminooxazol-3(2H)-yl)methyl)-5-(2-(trifluoromethyl)pyridin-3-yl)benzamide], in test [1] (Homo sapiens, MV4-11, 168 h), the GI50 was found to be 180 nM. On the same count and under the same terms, the result for `Cc1cc([C@@H](NC(=O)c2cc(CN3CCOC3=N)cc(-c3cccnc3C(F)(F)F)c2)C2CC2)ccc1F` [Example 253, (S)-(Cyclopropyl(4-fluoro-3-methylphenyl)methyl)-3-((2-iminooxazolidin-3-yl)methyl)-5-(2-(trifluoromethyl)pyridin-3-yl)benzamide] reads below 100 nM; that for `CCn1cc(-c2cc(CN3CCOC3=N)cc(C(=O)N[C@H](c3ccc(F)c(C)c3)C3CC3)c2)c(C(F)(F)F)n1` [Example 276, (S)—N-(Cyclopropyl(4-fluoro-3-methylphenyl)methyl)-3-(1-ethyl-3-(trifluoromethyl) H-pyrazol-4-yl)-5-((2-iminooxazolidin-3-yl)methyl)benzamide], below 100 nM.

For the compound `CCn1cc(-c2cc(Cn3ccoc3=N)cc(C(=O)NCc3ccc(=O)n(C)c3)c2)c(C(F)(F)F)n1` [Example 292, 3-(1-Ethyl-3-(trifluoromethyl)-1H-pyrazol-4-yl)-5-((2-iminooxazol-3(2H)-yl)methyl)-N-((1-methyl-6-oxo-1,6-dihydropyridin-3-yl)methyl)benzamide], the GI50 in test [1] (Homo sapiens, MV4-11, 168 h) came out at 710 nM. Same read-out and setting: the result for `COc1cc(CNC(=O)c2cc(Cn3ccsc3=N)cc(-c3ccc(F)cc3C)c2)cc(OC)c1` [Example 307, N-(3,5-Dimethoxybenzyl)-4′-fluoro-5-((2-iminothiazol-3(2H)-yl)methyl)-2′-methyl-[1,1′-biphenyl]-3-carboxamide] reads 910 nM; that for `Cc1nc(F)ccc1-c1cc(CN2CCCC2=N)cc(C(=O)NCc2ccc(Cl)c(Cl)c2)c1` [Example 331, N-(3,4-Dichlorobenzyl)-3-(6-fluoro-2-methylpyridin-3-yl)-5-((2-iminopyrrolidin-1-yl)methyl)benzamide], 950 nM; that for `Cc1cc(-c2cc(CN3CCCC3=N)cc(C(=O)NCc3ccc(Cl)c(Cl)c3)c2)c(C)cc1F` [Example 332, N-(3,4-Dichlorobenzyl)-4′-fluoro-5-((2-iminopyrrolidin-1-yl)methyl)-2′,5′-dimethyl-[1,1′-biphenyl]-3-carboxamide], 1400 nM.
